Experimental data from ChEMBL document CHEMBL1147327, “Developments in marine natural products. Receptor-specific bioactive compounds” (1993).
Calls of active or inactive are those of the source. The rule behind the calls is not given here.

Tests used:
[1] = test system: Candida albicans; assay: Antifungal activity against Candida albicans at 0.5 ug/disk by agar disk diffusion assay; assay type: functional; settings: read-out: IZ
[2] = test system: Candida albicans; assay: Antifungal activity against Candida albicans at 10 ug in presence of 20 ppm exogenous ergosterol; assay type: functional
[3] = test system: Candida albicans; assay: Antifungal activity against Candida albicans by agar disk diffusion assay; assay type: functional, organism-based
[4] = test system: Candida albicans; assay: Antifungal activity against Candida albicans in presence of 100 ppm exogenous ergosterol by agar disk diffusion assay; assay type: functional, organism-based

CCC(C)CCCCCCCCCCC(=O)O[C@@H](c1cnco1)c1nc([C@H](O)C[C@@H](O)[C@@H](O)[C@@H](C)O)co1 (stereo partly specified) [BENGAZOLE B1]
zone of inhibition at 0.5 µg/disc [1]: 9 mm

CC(C)CCCCCCCCCCCC(=O)O[C@@H](c1cnco1)c1nc([C@@H](O)C[C@@H](O)[C@@H](O)[C@@H](C)O)co1 [BENGAZOLE B]
Activity [2]: 50%
zone of inhibition at 0.5 µg/disc [1]: 9 mm

CCCCCCCCCCCCCCCC(=O)O[C@@H](c1cnco1)c1nc([C@@H](O)C[C@@H](O)[C@@H](O)[C@@H](C)O)co1 [BENGAZOLE G]
zone of inhibition at 0.5 µg/disc [1]: 9 mm

CCCCCCCCCCCCCC(=O)O[C@@H](c1cnco1)c1nc([C@@H](O)C[C@@H](O)[C@@H](O)[C@@H](C)O)co1 [BENGAZOLE A]
zone of inhibition at 0.5 µg/disc [1]: 9 mm

CCC(C)CCCCCCCCCCCC(=O)O[C@@H](c1cnco1)c1nc([C@@H](O)C[C@@H](O)[C@@H](O)[C@@H](C)O)co1 (stereo partly specified) [BENGAZOLE F]
zone of inhibition at 0.5 µg/disc [1]: 9 mm

CC(C)CCCCCCCCCCC(=O)O[C@@H](c1cnco1)c1nc([C@@H](O)C[C@@H](O)[C@@H](O)[C@@H](C)O)co1 [BENGAZOLE D]
zone of inhibition at 0.5 µg/disc [1]: 9 mm

CCCCCCCCCCCCCCC(=O)O[C@@H](c1cnco1)c1nc([C@@H](O)C[C@@H](O)[C@@H](O)[C@@H](C)O)co1 [BENGAZOLE E]
zone of inhibition at 0.5 µg/disc [1]: 9 mm

COC(=O)[C@H](C)[C@@H]1CC[C@](C)([C@@H]2C[C@@]3(C)[C@H](C)C[C@H]4C=C(C)CC[C@H]4[C@@]3(C)O2)OO1
Activity [3]: inactive

CCCCCCCCCCCCC(=O)O[C@@H](c1cnco1)c1nc([C@@H](O)C[C@@H](O)[C@@H](O)[C@@H](C)O)co1 [BENGAZOLE C]
zone of inhibition at 0.5 µg/disc [1]: 9 mm

CC1=C[C@@H]2C[C@@H](C)[C@]3(C)C[C@@H]([C@@]4(C)CC[C@@H]([C@@H](C)C(=O)O)OO4)O[C@]3(C)[C@@H]2CC1
Activity [4]: Active
